Laboratory results taken from US8338422B2, “Indolin-2-ones and aza-indolin-2-ones” (Janssen Pharmaceutica NV, priority 2007, dated 2012).

What was measured:
H1299 = test: Cellular proliferation assay (Alamar blue), H1299; assay type: cell-based; details: H1299 cells, 72 hours with compound, 10% FCS; for IC50: Homo sapiens, NCI-H1299, 72 h, read-out: pIC50 H1299 (converted)
Outline: (§1)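 Proliferation was assessed over 72 h of compound treatment, following 24 h of seeding without compound, under 10% FCS, 37° C. and 5% CO2. Fluorescent resazurin product was measured and compared with control cells.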

PC-3 = test: Cellular proliferation assay (Alamar blue), PC-3; assay type: cell-based; details: PC-3 cells, 72 hours with compound, 10% FCS; for IC50: Homo sapiens, PC-3, 72 h, read-out: pIC50 PC-3 (converted)
Outline: as §1

U87MG = test: Cellular proliferation assay (Alamar blue), U87MG; assay type: cell-based; details: U87MG cells, 72 hours with compound, 10% FCS; for IC50: Homo sapiens, U-87 MG, 72 h, read-out: pIC50 U87MG (converted)
Outline: as §1

GSK3β (h) = GSK3β (h) (Homo sapiens, UniProt P49841); test: GSK-3β human kinase assay (SPA); assay type: biochemical; details: for IC50: read-out: GSK3B pIC50 (converted)
GSK3β (h), sequence (P49841 whole entry): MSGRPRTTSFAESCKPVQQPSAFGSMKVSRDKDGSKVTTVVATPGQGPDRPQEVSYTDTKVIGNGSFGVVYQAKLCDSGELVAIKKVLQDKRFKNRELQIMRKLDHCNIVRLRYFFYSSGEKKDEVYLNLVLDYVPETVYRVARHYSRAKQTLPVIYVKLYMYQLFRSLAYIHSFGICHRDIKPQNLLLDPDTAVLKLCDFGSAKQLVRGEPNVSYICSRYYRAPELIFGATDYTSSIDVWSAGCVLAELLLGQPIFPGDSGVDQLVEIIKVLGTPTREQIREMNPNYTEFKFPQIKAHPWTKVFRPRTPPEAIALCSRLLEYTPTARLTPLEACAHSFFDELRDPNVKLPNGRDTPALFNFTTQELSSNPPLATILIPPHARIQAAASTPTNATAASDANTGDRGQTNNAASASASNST
Outline: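 Radiometric SPA read-out: after EDTA stop, biotinylated 33P-labelled peptide bound streptavidin PVT beads and was imaged on Leadseeker. Reaction: 60 min, room temperature, GSK3β (h) at 1 μg/ml, 1 μM substrate peptide, 1 μM ATP with 2 nM [γ-33P]ATP, Tris pH 7.4/MgCl2/DTT buffer.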

PLK4 (h) = PLK4 (h) (Homo sapiens, UniProt O00444); test: PLK-4 human kinase assay (SPA); assay type: biochemical; details: for IC50: read-out: PLK4 pIC50 (converted)
PLK4 (h), sequence (O00444 whole entry): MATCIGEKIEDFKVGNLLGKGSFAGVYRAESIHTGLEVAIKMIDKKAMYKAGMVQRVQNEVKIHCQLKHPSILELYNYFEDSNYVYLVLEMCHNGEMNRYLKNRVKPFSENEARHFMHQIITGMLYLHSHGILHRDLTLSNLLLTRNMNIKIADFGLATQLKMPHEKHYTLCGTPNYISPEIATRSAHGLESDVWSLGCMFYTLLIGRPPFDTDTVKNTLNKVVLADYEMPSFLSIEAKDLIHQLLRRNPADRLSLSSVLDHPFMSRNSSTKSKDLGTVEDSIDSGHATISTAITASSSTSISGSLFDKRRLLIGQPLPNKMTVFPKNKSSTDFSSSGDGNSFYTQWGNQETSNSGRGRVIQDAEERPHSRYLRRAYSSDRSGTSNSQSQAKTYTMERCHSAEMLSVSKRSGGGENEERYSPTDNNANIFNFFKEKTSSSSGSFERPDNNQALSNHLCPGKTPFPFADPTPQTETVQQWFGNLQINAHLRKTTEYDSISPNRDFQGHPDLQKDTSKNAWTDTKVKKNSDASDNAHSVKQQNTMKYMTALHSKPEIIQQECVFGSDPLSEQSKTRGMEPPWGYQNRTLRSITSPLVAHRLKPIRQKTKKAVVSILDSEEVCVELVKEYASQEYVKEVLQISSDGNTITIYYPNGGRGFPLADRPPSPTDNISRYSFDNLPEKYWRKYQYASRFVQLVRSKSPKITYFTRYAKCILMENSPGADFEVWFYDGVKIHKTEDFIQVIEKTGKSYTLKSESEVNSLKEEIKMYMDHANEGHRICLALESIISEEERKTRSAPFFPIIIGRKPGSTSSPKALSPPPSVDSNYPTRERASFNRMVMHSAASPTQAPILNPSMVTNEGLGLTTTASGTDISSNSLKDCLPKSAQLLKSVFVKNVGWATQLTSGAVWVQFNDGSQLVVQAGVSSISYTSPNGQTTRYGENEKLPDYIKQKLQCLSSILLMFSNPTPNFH
Outline: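 Radiometric readout: 33P-labelled peptide captured on streptavidin SPA beads after EDTA stop, imaged by Leadseeker. Reaction ran 60 min at room temperature in Hepes pH 8.0 buffer. It contained 1 μM ATP with 2 nM [γ-33P]ATP, 10 μM biotinylated peptide and PLK4 (h) at 19 μg/ml.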

SKOV3 = test: Cellular proliferation assay (Alamar blue), SKOV3; assay type: cell-based; details: 72 hours with compound, 10% FCS; for pIC50 SKOV3: SKOV3 cells; for IC50: Homo sapiens, SK-OV-3, SKOV3 cells, read-out: pIC50 SKOV3 (converted)
Procedure: […] functional properties of these compounds was tested in cellular proliferation assays on a panel of different cell lines in the presence of 10% FCS serum (37° C. and 5% (v/v) CO2). In a first step these cells were seeded and incubated for 24 hours in the absence of compound. In the second step the cells were incubated for 72 hours with the compounds to be tested for 72 hours. The viable cell number was finally assessed in a standard Alamar blue cell viability assay.
The viable cell number was assessed by incubation for either 4 h (HCT-116, H1299, H460) 6 h (SKOV3, HT29, U87-MG, Colo205) or 24 h (A2780, PC3, MDA-MB-231, A549, MCF-7) with Alamar blue (Resazurin 9 μg/ml, K-Ferrocyanide 90 μM K-Ferricyanide 90 μM) and the converted fluorescent product was quantified on a fluorescent plate readed (544 nm/590 nm). Effect of the compounds is calculated as of on control cells.

AuroraB (h) = AuroraB (h) (Homo sapiens, UniProt Q96GD4); test: Aurora-B human kinase assay (SPA); assay type: biochemical; details: for IC50: read-out: AuroraB pIC50 (converted)
AuroraB (h), sequence (Q96GD4 whole entry): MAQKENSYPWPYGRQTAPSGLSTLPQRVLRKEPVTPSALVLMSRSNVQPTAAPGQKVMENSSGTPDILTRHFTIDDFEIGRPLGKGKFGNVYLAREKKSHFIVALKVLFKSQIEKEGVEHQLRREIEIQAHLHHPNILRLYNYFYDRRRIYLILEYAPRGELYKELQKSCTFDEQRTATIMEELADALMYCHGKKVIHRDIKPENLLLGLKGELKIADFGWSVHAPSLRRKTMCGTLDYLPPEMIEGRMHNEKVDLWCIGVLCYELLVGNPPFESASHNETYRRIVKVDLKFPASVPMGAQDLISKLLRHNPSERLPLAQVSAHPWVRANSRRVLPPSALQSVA
Outline: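 33P-phosphorylated biotin-substrate captured on streptavidin PVT SPA beads after EDTA-containing stop and imaged on Leadseeker. Reaction: 60 min at room temperature, Hepes pH 7.5 with Mg2+/Mn2+. Conditions: 0.5 μM ATP plus 2.2 nM [γ-33P]ATP, 3 μM substrate, 0.5 μg/ml human AuroraB.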

MDA/MB231 = test: Cellular proliferation assay (Alamar blue), MDA/MB231; assay type: cell-based; details: MDA/MB231 cells, 72 hours with compound, 10% FCS; for IC50: Homo sapiens, MDA-MB-231, 72 h, read-out: pIC50 MDA/MB231 (converted)
Outline: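 Cells were grown in 10% FCS at 37° C. with 5% CO2, plated 24 h without compound, then exposed to compound for 72 h. Viability was measured by Alamar blue (resazurin 9 μg/ml) fluorescence at 544 nm/590 nm after 4 h (H460) or 24 h (MDA-MB-231) dye incubation, relative to control cells.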

CDK1/CyclinB (h) = CDK1/CyclinB (h) (Homo sapiens, UniProt P06493); test: CDK1/CyclinB human kinase assay (FRET); assay type: biochemical; details: for IC50: read-out: CDK1 pIC50 (converted)
CDK1/CyclinB (h), sequence (P06493 whole entry): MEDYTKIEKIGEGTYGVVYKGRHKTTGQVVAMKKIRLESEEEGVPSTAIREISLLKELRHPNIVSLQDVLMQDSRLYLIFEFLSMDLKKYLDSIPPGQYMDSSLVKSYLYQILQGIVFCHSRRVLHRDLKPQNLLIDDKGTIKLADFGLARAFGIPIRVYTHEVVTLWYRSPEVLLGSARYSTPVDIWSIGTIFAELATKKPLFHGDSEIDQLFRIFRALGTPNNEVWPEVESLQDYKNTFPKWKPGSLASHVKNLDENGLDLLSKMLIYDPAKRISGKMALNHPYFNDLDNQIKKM
CDK1/CyclinB (h), sequence (P14635 whole entry partner): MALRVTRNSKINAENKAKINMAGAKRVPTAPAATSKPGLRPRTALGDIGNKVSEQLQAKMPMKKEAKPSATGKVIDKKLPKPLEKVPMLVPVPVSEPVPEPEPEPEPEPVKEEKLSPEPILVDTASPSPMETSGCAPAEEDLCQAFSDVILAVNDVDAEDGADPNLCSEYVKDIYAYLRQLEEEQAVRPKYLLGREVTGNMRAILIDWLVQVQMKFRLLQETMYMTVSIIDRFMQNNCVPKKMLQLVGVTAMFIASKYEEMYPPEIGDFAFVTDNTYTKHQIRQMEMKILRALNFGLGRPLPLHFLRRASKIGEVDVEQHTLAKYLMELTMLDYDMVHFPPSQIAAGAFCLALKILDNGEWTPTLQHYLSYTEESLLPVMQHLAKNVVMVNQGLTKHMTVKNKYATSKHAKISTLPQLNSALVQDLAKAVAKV
Outline: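 Kinase activity was read as the 460/538 nm emission ratio after protease cleavage of unphosphorylated peptide (60 min development). The reaction ran 60 min at room temperature with 10 μM ATP, 2 μM Ser/Thr peptide 12 and 0.2 μg/ml enzyme in Hepes pH 7.5 buffer with MgCl2, EGTA, Brij-35.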

A2780 = test: Cellular proliferation assay (Alamar blue), A2780; assay type: cell-based; details: A2780 cells, 72 hours with compound, 10% FCS; for IC50: Homo sapiens, A2780, 72 h, read-out: pIC50 A2780 (converted)
Outline: as §1

HCT-116 = test: Cellular proliferation assay (Alamar blue), HCT-116; assay type: cell-based; details: HCT-116 cells, 72 hours with compound, 10% FCS; for IC50: Homo sapiens, HCT-116, 72 h, read-out: pIC50 HCT-116 (converted)
Outline: as §1

Row | IC50 (H1299) | IC50 (PC-3) | IC50 (U87MG) | IC50 (GSK3β (h)) | IC50 (HCT-116) | IC50 (PLK4 (h)) | IC50 (SKOV3) | IC50 (AuroraB (h)) | IC50 (CDK1/CyclinB (h)) | IC50 (A2780) | Compound | IC50 (MDA/MB231) | also measured
1 | 1.2 µM | 7.94 µM | 0.708 µM | 575 nM | – | 0.851 µM | 8.32 µM | > 10 µM | 4.68 µM | 0.288 µM | CN1CCN(c2ccc3cc2CN(C)CCCCC(=O)N(C)CCCNc2ncnc4c2/C(=C/N3)C(=O)N4)CC1 [Compound 122] | 1.95 µM | –
2 | > 10 µM | > 10 µM | > 10 µM | > 10000 nM | > 10 µM | > 10 µM | > 10 µM | > 10 µM | > 10 µM | > 10 µM | COc1cc2cc(c1OC)CN(C)CC(=O)N(C)CCNc1ncnc3c1/C(=C/N2)C(=O)N3 [Compound 123] | > 10 µM | –
3 | > 10 µM | > 10 µM | > 10 µM | 302 nM | > 10 µM | 5.01 µM | – | > 10 µM | > 10 µM | > 10 µM | CN1CCNc2ncnc3c2/C(=C/Nc2cccc(c2)CN(C)CC(=O)N(C)CC1)C(=O)N3 [Compound 149] | > 10 µM | –
4 | > 10 µM | > 10 µM | > 10 µM | 933 nM | > 10 µM | 3.47 µM | – | 2.88 µM | > 10 µM | > 10 µM | COc1ccc2cc1OCC(=O)N(C)CCCCNc1ncnc3c1/C(=C/N2)C(=O)N3 [Compound 151] | > 10 µM | –
5 | > 10 µM | > 10 µM | > 10 µM | > 10000 nM | > 10 µM | 5.01 µM | – | > 10 µM | > 10 µM | > 10 µM | COc1cc2cc(c1OC)CN(C)CC(=O)N(C)CCCCNc1ncnc3c1/C(=C/N2)C(=O)N3 [Compound 152] | > 10 µM | –
6 | > 10 µM | > 10 µM | > 10 µM | 1620 nM | > 10 µM | 2.57 µM | – | > 10 µM | > 10 µM | > 10 µM | COc1ccc2cc1CN(C)CC(=O)N(C)CCCCNc1ncnc3c1/C(=C/N2)C(=O)N3 [Compound 153] | > 10 µM | –
7 | > 10 µM | > 10 µM | > 10 µM | 661 nM | > 10 µM | 2.82 µM | – | > 10 µM | > 10 µM | > 10 µM | CN1CC(=O)N(C)CCCCNc2ncnc3c2/C(=C/Nc2cccc(c2)C1)C(=O)N3 [Compound 154] | > 10 µM | –
8 | > 10 µM | > 10 µM | > 10 µM | 6030 nM | > 10 µM | 8.71 µM | – | > 10 µM | > 10 µM | > 10 µM | COc1cc2cc(c1OC)CN(C)CC(=O)N(C)CCN(C)CCNc1ncnc3c1/C(=C/N2)C(=O)N3 [Compound 155] | > 10 µM | –

The remaining lines, values behind:

Row | Compound | IC50 (H1299) | IC50 (PC-3) | IC50 (U87MG) | IC50 (GSK3β (h)) | IC50 (HCT-116) | IC50 (PLK4 (h)) | IC50 (SKOV3) | IC50 (AuroraB (h)) | IC50 (CDK1/CyclinB (h)) | IC50 (A2780) | IC50 (MDA/MB231) | also measured
9 | CN1CCN(c2ccc3cc2CN(C)CCCCCC(=O)N(C)CCCNc2ncnc4c2C(=CN3)C(=O)N4)CC1 (mixture of isomers) [Compound 117] | – | – | – | – | – | – | – | – | – | – | – | pIC50 H1299 (H1299): 5.15; pIC50 PC-3 (PC-3): <5; pIC50 U87MG (U87MG): 5.55; GSK3B pIC50 (GSK3β (h)): 5.58; PLK4 pIC50 (PLK4 (h)): 6.5; pIC50 SKOV3 (SKOV3): <5; AuroraB pIC50 (AuroraB (h)): <5; pIC50 MDA/MB231 (MDA/MB231): 5.06; CDK1 pIC50 (CDK1/CyclinB (h)): <5; pIC50 A2780 (A2780): 5.63
10 | CN1CCCNc2ncnc3c2C(=CNc2ccc(N4CCOCC4)c(c2)OCCCCCC1=O)C(=O)N3 (mixture of isomers) [Compound 120] | – | – | – | – | – | – | – | – | – | – | – | pIC50 H1299 (H1299): 5.68; pIC50 PC-3 (PC-3): <5; pIC50 U87MG (U87MG): 5.99; GSK3B pIC50 (GSK3β (h)): 6.73; pIC50 HCT-116 (HCT-116): 5.38; PLK4 pIC50 (PLK4 (h)): 6.67; pIC50 SKOV3 (SKOV3): 5.02; AuroraB pIC50 (AuroraB (h)): 5.58; pIC50 MDA/MB231 (MDA/MB231): 5.03; CDK1 pIC50 (CDK1/CyclinB (h)): 5.86; pIC50 A2780 (A2780): 5.95
11 | CN1CCCNc2ncnc3c2C(=CNc2ccc(N4CCOCC4)c(c2)OCCCCC1=O)C(=O)N3 (mixture of isomers) [Compound 121] | – | – | – | – | – | – | – | – | – | – | – | pIC50 H1299 (H1299): 6.32; pIC50 PC-3 (PC-3): 5.19; pIC50 U87MG (U87MG): 6.66; GSK3B pIC50 (GSK3β (h)): 7.45; pIC50 HCT-116 (HCT-116): 5.99; PLK4 pIC50 (PLK4 (h)): 7.22; pIC50 SKOV3 (SKOV3): 5.78; AuroraB pIC50 (AuroraB (h)): 6.15; pIC50 MDA/MB231 (MDA/MB231): 5.20; CDK1 pIC50 (CDK1/CyclinB (h)): 6.24; pIC50 A2780 (A2780): 6.48
12 | CN1CCN(c2ccc3cc2CN(C)CCCC(=O)N(C)CCNc2ncnc4c2/C(=C/N3)C(=O)N4)CC1 [Compound 116] | 9.77 µM | > 10 µM | 3.24 µM | 3090 nM | 6.46 µM | 5.89 µM | > 10 µM | > 10 µM | > 10 µM | 3.72 µM | 5.25 µM | –
13 | COc1cc2cc(c1OC)CN(C)CCCC(=O)N(C)CCNc1ncnc3c1/C(=C/N2)C(=O)N3 [Compound 118] | > 10 µM | > 10 µM | > 10 µM | > 10000 nM | > 10 µM | > 10 µM | > 10 µM | > 10 µM | > 10 µM | > 10 µM | > 10 µM | –
14 | COc1cc2cc(c1OC)CN(C)CCCCC(=O)N(C)CCNc1ncnc3c1/C(=C/N2)C(=O)N3 [Compound 119] | > 10 µM | > 10 µM | > 10 µM | > 10000 nM | – | 7.41 µM | > 10 µM | > 10 µM | 6.31 µM | 2.57 µM | > 10 µM | –
